Holding throughout (assay): inhibition of tumour cell growth, NCI panel, 48 h
Test [1] deals with NCI-H522 lung.
The test system of test [2] is NCI-H226 lung.
Test [3] deals with PC-3 prostate.
For test [4], the system named is OVCAR-5 ovarian.
The subject of test [5] is UO-31 renal.
For test [6], the system named is HL-60(TB) leukemia.
For test [7], the system named is RXF 393 renal.
The test system of test [8] is SK-OV-3 ovarian.
In test [9] the test system is 786-0 renal.
Test [10] has as its system K-562 leukemia.

We go through 15 molecules from PubChem BioAssay (NCI).

Values joined by “and” are separate entries in the source; they are usually repeats but may differ in a detail not shown here. Equal values may be shown once.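 48-hour exposure; five concentrations; linearly interpolated endpoints. Here, GI50 denotes the concentration required for 50% inhibition of growth. TGI: concentration producing complete growth inhibition.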

Turning to `Cc1c(N)nc(C2CC(=O)N2CC(N)C(N)=O)nc1C(=O)NC(C(=O)NC(C)C(O)C(C)C(=O)NC(C(=O)NCCc1nc(-c2nc(C(=O)NCCNCC(C)O)cs2)cs1)C(C)O)C(OC1OC(CO)C(O)C(O)C1OC1OC(CO)C(O)C(OC(N)=O)C1O)c1cnc[nH]1` (stereo not given), the GI50 in test [1] is 0.972 µM; in test [4], 9.82 µM; in [5], 0.974 µM; in test [6] it was 24.4 µM; in [8], 10.6 µM; in test [9], 2.3 µM. Besides, in test [10], the GI50 is 35.9 µM. Further, the TGI in test [1] is 10.8 µM and 7.89 µM; in test [2] it was 0.261 µM; in test [3] it was over 50 µM; in test [4], 50 µM and 57.4 µM; in test [5], 17 µM and 21.6 µM; in test [6] it was 50 µM and > 37.4 µM. Also, the TGI is 0.425 µM in test [7]; 50 µM and > 32.9 µM in test [8]; 50 µM and 36.8 µM in test [9]; 50 µM and > 100 µM in test [10].

As to `COc1ccc(Cl)cc1Nc1nc(C(F)(F)F)ccc1C(=O)N/N=C/c1ccc(Cl)cc1`, the GI50 was 4.16 µM in test [1]; 4.18 µM in test [2]; over 100 µM in test [3]; 6.48 µM in test [4]; 1.03 µM in [5]; 7.58 µM in test [6]. Besides, the GI50 in test [7] was 4.56 µM; in test [8], 1.95 µM; in test [9], 1.22 µM; in [10], 3.85 µM. For the same molecule, the TGI in [1] was 42.5 µM; in test [2], over 100 µM; in test [3], over 100 µM; in test [4] it was over 100 µM; in test [5], over 100 µM; in test [6], 22 µM. For the same molecule, the TGI in test [7] was determined as 53.2 µM; in test [8] it was 22.9 µM; in test [9], 7.09 µM; in [10], 40.5 µM.

Consider `O=C1OC(c2ccccc2)=N/C1=C\c1ccc(N(CCCl)CCCl)cc1`, for which the TGI was over 95.7 µM in test [1]; over 100 µM in [2]; over 100 µM in test [3]; over 100 µM in test [4]; over 100 µM in test [5]; over 100 µM in [6]. The TGI in test [7], in [8], in test [9] and in test [10] was over 100 µM each time.

Consider `Cn1c(=O)c(-c2c(Cl)cccc2Cl)cc2cnc(Nc3ccc(N4CCOCC4)cc3)nc21`, for which the GI50 in test [1] is 0.0202 µM; in [2], 0.0748 µM; in test [3] it was 0.474 µM; in test [4] it was 0.0349 µM; in test [5], 2.29 µM; in test [6] it was 0.0137 µM. Also, the GI50 in test [7] was 1.36 µM; in test [8], under 0.01 µM; in test [9] it was under 0.01 µM; in [10], under 0.01 µM. In addition, the TGI in [1] was 0.42 µM; in [2], over 100 µM; in test [3] it was over 100 µM; in test [4], 0.799 µM; in test [5] it was 6.66 µM; in test [6] it was 0.216 µM. The TGI is 3.86 µM in test [7], over 100 µM in test [8], 0.519 µM in test [9] and 0.0538 µM in test [10].

Turning to `O=C1COc2c(CCNCCN(C(=O)CCNCCc3ccc(Cl)c(Cl)c3)C3CCCCC3)ccc(O)c2N1`, the GI50 in test [1] is 15.2 µM; in [2], 17.7 µM; in test [3] it was 16 µM; in test [4], 13.6 µM; in [5] it was 16 µM; in test [6], 14.2 µM. Further, the GI50 in [7] was 14.8 µM; in test [8], 16 µM; in test [9], 17.2 µM; in [10], 16.2 µM. Also, the TGI in test [1] was 32.3 µM; in test [2], 35.9 µM; in [3], 30.3 µM; in test [4] it was 28.4 µM; in [5], 31 µM; in test [6], 32.1 µM. The TGI is 30.7 µM in test [7], 30.8 µM in test [8], 32.9 µM in test [9] and 34.1 µM in [10].

For the molecule `COc1ccc(C[C@H](N)C(=O)N[C@@H]2[C@@H](CO)OC(n3cnc4c(N(C)C)ncnc43)[C@@H]2O)cc1` (stereo not given in full), the GI50 was 0.126 µM in test [1]; 0.497 µM in test [2]; 0.311 µM in test [3]; 1.14 µM in [4]; 1.56 µM in test [5]; 0.454 µM in test [6]. The GI50 in test [7] was 0.216 µM; in [10], 0.293 µM. The TGI in [1] is 0.493 µM; in test [2] it was 1.27 µM; in test [3], 1.73 µM; in test [4], 2.94 µM; in [5], 6.57 µM; in test [6], 1.7 µM. In addition, the TGI worked out at 0.831 µM in [7], 1.5 µM in test [8], 1.24 µM in test [9] and 1.46 µM in test [10].

With `COc1cc(-c2nn(-c3cccc(NC(=O)c4cccc(C(F)(F)F)c4)c3)cc2-c2ccncc2)ccc1Cl`, the GI50 in test [1] is 1.05 µM; in test [2], 1.66 µM; in test [3], 1.23 µM; in test [4], 4.01 µM; in test [5], 0.969 µM; in test [6], 2.02 µM. The GI50 in test [7] is 0.812 µM; in test [8], 2.29 µM; in test [9], 2.45 µM; in [10], 1.4 µM. Besides, the TGI in test [1] is 3.85 µM; in [2] it was 27 µM; in test [3], over 50 µM; in test [4], over 50 µM; in test [5], over 50 µM; in test [6], over 50 µM. The TGI in test [7] was 3.15 µM; in test [8], over 50 µM; in test [9], over 50 µM; in [10] it was over 50 µM.

Take `Oc1ccc(/C=N/Nc2nnc(N/N=C/c3ccc(O)cc3O)c3ccccc23)c(O)c1`: the GI50 in test [1] is 0.253 µM; in test [2], 1.92 µM; in test [4] it was 1.36 µM; in [5], 0.282 µM; in [6], 0.376 µM; in [7], 0.519 µM. Moreover, the GI50 is 0.552 µM in test [8], 0.593 µM in test [9] and 0.346 µM in test [10]. For the same molecule, the TGI in test [1] was 0.799 µM; in test [2] it was 6.98 µM; in test [3], 8.82 µM; in test [4] it was 15.8 µM; in test [5], 3.92 µM; in test [6], 0.598 µM and 4.81 µM. In addition, the figures for the TGI in test [7], in test [8] and in [9] were 2.4 µM, 4.5 µM and 2.46 µM, respectively.

On to `OCCn1c(-c2ccncc2)c(-c2ccc(F)cc2)c2ncccc21`, for which the GI50 in [1] is over 25 µM; in test [2], over 25 µM; in [3] it was over 25 µM; in test [4], over 25 µM; in test [5], 12.5 µM; in [6] it was over 25 µM. The GI50 in [7], in [8], in test [9] and in [10] was over 25 µM each time. For the same molecule, the TGI in [1], in test [2], in test [3], in [4], in [5] and in test [6] was over 25 µM in each case. Also, the TGI in test [7], in test [8], in test [9] and in [10] was over 25 µM in each case.

Turning to `c1csc(-c2[nH]nc3c2CCc2ccccc2-3)c1`, the GI50 was 18.9 µM in [1]; 13.5 µM in test [2]; 12.5 µM in test [3]; 0.959 µM in test [4]; 6.4 µM in [5]; 20.5 µM in test [6]. The GI50 in test [7] was 16.9 µM; in test [8], 24.6 µM; in test [9] it was 21.3 µM; in test [10], 22 µM. Besides, the TGI in test [1] was 44.9 µM; in [2], 42.2 µM; in test [3] it was 37.5 µM; in test [4] it was 32.4 µM; in test [5], 34.9 µM; in [6], 47.3 µM. Also, the TGI in [7] stood at 37.4 µM; in test [8], 65.6 µM; in [9] it was 51 µM; in test [10], 68.6 µM.

On to `CCc1c[nH]c2ncnc(N3CC[C@](N)(CNC(=O)c4ccc(F)cc4F)C3)c12`, for which the GI50 in [1] is 30.1 µM; in [2], 5.75 µM; in test [3], 1 µM; in test [4], 21.7 µM; in test [5], 1.52 µM; in test [6], 56.2 µM. Besides, the GI50 in test [7] was 0.244 µM; in [8] it was 0.973 µM; in test [9], 0.479 µM; in test [10], over 54.1 µM. In addition, the TGI was over 100 µM in test [1]; over 77.7 µM in test [2]; over 91.7 µM in test [3]; over 100 µM in [4]; 47.6 µM in test [5]; over 100 µM in test [6]. For the same molecule, the TGI in test [7] was 8.02 µM; in test [8] it was over 62.1 µM; in test [9], 19.8 µM; in test [10], over 100 µM.

As for `CCNc1nc(-c2ccc(Cl)c(OC)c2)c(-c2ccnc(NCCNS(=O)(=O)c3ccc(Cl)cc3)n2)s1`, the GI50 is 1.92 µM in test [1]; 2.81 µM in test [2]; 2.99 µM in test [3]; 3.67 µM in [4]; 2.51 µM in [5]; 2.87 µM in test [6]. The GI50 was 2 µM in test [7], 3.66 µM in test [8], 3.46 µM in [9] and 3.17 µM in test [10]. Further, the TGI is 4.35 µM in test [1]; 14.3 µM in [2]; over 100 µM in [3]; over 100 µM in test [4]; 6.37 µM in [5]; 7.16 µM in test [6]. For the same molecule, the TGI in test [7] was 5.1 µM; in test [8] it was 55.1 µM; in test [9], 13.9 µM; in [10] it was over 100 µM.

With `Cc1cccc(Cc2cnc(NC(=O)CCCOc3ccc(Cl)cc3)s2)c1`, the GI50 is 51.1 µM in [1]; 59.3 µM in test [2]; 4.58 µM in test [3]; 5.88 µM in test [4]; 4.52 µM in test [5]; 2.24 µM in test [6]. Further, the GI50 in test [7] was 9.58 µM; in [8], over 100 µM; in test [9], 5.95 µM; in test [10], 3.84 µM. In addition, the TGI is over 100 µM in test [1]; over 100 µM in [2]; over 100 µM in test [3]; over 100 µM in [4]; over 100 µM in test [5]; 5.1 µM in test [6]. Besides, the TGI in test [7], in test [8], in test [9] and in [10] was over 100 µM each time.

With `O=C1C(=O)c2c(ccc3ccccc23)-c2ccccc21`, the GI50 was 1.32 µM in [1]; 2.02 µM in test [2]; 1.81 µM in [3]; 2.54 µM in test [4]; 2.39 µM in [5]; 2.83 µM in test [6]. The GI50 in test [7] is 1.68 µM; in [8] it was 2.05 µM; in test [9], 3.13 µM. For the same molecule, the TGI is 3.13 µM in test [1]; 5.02 µM in test [2]; 6.25 µM in test [3]; 7.45 µM in test [4]; over 100 µM in test [5]; 5.85 µM in [6]. Besides, the TGI is 3.22 µM in test [7], 5.06 µM in test [8] and over 100 µM in test [9].

Take `COc1cc([C@H]2c3cc(O)c(OC)cc3C[C@]3(O)[C@@H]2CO[C@@H]3O)ccc1O`: the TGI in [1], in test [2], in test [3], in test [4], in test [5] and in test [6] was over 100 µM in each case. In addition, the TGI in [8], in test [9] and in test [10] was over 100 µM throughout.
